Literature values as cited in patent publication US6469069B1, “Propofol composition containing sulfite” (Gensia Sicor Pharmaceuticals, Inc., priority 1998, dated 2002).

Tested on: likely microbial contaminants
Settings: 1% Diprivan (Zeneca) 0.1% Na2S2O5

## O=S([O-])S(=O)(=O)[O-].[Na+].[Na+] [sodium metabisulfite, Sodium metabisulfite]
  Preservative effect in propofol emulsion (in words): completely ineffectual
